From patent US20230277534A1 (Plexxikon Inc., priority 2011, published 2023) come the findings set out here.

Some results are limits rather than exact numbers.

In general, IC50 refers to the concentration that gives 50% inhibition. Read a low IC50 as inhibition by little substance.

One test addresses B-Raf V600E (Homo sapiens (Human), UniProt P15056, V600E). As to the kind of experiment: B-Raf V600E kinase biochemical activity assay (AlphaScreen, biotin-MEK1 substrate). As to conditions: 100 μM ATP. The procedure, abridged:
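B-Raf V600E (0.1 ng) phosphorylated 100 nM biotin-MEK1 with 100 μM ATP (final) in HEPES pH 7.0 with Mg2+/Mn2+ for 45 min at room temperature. Compounds were tested over an 8-point serial dilution. Phospho-MEK1/2 was detected by AlphaScreen after 3 h with beads, and IC50 came from signal versus concentration.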

Test [1] concerns COLO205 colon adenocarcinoma cells (B-Raf V600E mutation). As to the kind of experiment: COLO205 cell growth inhibition (ATPlite). The note with it: Homo sapiens, COLO 205, 72 h, 3 days. It is filed as cell-based. The procedure: Compounds are assessed in a variety of cell based assays.
On day 1, cells are counted, then centrifuged in a conical tube for 5 minutes at 1000 rpm.
On day 2, compound at a maximum concentration of 5 mM is serially diluted 1:3 (e.g. 10 μL with 30 μL dimethyl sulfoxide) for a total of 8 point titration with DMSO as a control. A 1 μL aliquot of each dilution point and control is added to 249 μL growth media and 50 μL is added to a well containing cells, providing 10 μM compound at the maximum concentration point. The cells are incubated for 3 days at 37° C. in 5% CO2.
ATPlite is added 25 μL to each well, shake for 2 minutes, and the cells are incubated at room temperature for 10 minutes, then luminescence is read on Safire reader. The measured luminescence correlates directly with cell number, such that the reading as a function of compound concentration is used to determine the IC50 value.

Chain of B-Raf V600E (P15056 whole entry V600E): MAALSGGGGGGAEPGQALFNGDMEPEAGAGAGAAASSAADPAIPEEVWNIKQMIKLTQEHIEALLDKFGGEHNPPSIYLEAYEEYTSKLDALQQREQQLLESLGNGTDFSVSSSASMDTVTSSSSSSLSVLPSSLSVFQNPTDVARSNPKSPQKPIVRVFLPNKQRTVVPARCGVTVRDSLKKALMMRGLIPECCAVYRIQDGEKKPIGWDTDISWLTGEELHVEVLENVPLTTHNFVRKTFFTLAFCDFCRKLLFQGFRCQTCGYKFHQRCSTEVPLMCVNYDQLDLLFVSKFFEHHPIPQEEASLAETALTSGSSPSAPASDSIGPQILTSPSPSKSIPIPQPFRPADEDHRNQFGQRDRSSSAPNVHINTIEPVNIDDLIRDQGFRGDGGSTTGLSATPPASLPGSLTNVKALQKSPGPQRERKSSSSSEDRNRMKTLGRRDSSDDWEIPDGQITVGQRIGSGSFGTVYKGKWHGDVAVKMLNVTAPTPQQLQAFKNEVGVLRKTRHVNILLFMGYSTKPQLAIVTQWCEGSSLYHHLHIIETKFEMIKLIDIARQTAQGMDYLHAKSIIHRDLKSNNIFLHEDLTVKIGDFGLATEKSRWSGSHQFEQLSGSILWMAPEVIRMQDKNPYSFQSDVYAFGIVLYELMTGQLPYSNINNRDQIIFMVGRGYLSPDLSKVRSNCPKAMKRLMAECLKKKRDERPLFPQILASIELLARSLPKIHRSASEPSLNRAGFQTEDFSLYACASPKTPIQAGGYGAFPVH

In the case of `CCN(C)S(=O)(=O)Nc1cccc(C(=O)c2c[nH]c3ncc(-c4cncc(C#N)c4)cc23)c1F` [Compound P-0101, 5-(5-cyano-3-pyridyl)-3-[3-[[ethyl(methyl)sulfamoyl]amino]-2-fluoro-benzoyl]-1H-pyrrolo[2,3-b]pyridine], the IC50 was under 0.1 µM against B-Raf V600E and over 1 µM in test [1].
On the same counts, the results for `CCN(C)S(=O)(=O)Nc1cccc(C(=O)c2c[nH]c3ncc(-c4ccc(C#N)nc4)cc23)c1F` [Compound P-0102, 5-(6-cyano-3-pyridyl)-3-[3-[[ethyl(methyl)sulfamoyl]amino]-2-fluoro-benzoyl]-1H-pyrrolo[2,3-b]pyridine] are under 0.1 µM and over 1 µM.
As to `CCN(C)S(=O)(=O)Nc1cccc(C(=O)c2c[nH]c3ncc(-c4ccc(C(C)(C)O)cc4)cc23)c1F` [Compound P-0104, 3-[3-[[ethyl(methyl)sulfamoyl]amino]-2-fluoro-benzoyl]-5-[4-(1-hydroxy-1-methyl-ethyl)phenyl]-1H-pyrrolo[2,3-b]pyridine], the IC50 at B-Raf V600E is under 0.1 µM; in test [1], under 1 µM.
On the same counts, the results for `CN(C)c1ncc(-c2cnc3[nH]cc(C(=O)c4cccc(NS(=O)(=O)N(C)C)c4F)c3c2)cn1` [Compound P-0106, 5-[2-(dimethylamino)pyrimidin-5-yl]-3-[3-(dimethylsulfamoylamino)-2-fluoro-benzoyl]-1H-pyrrolo[2,3-b]pyridine] are under 0.1 µM and under 1 µM.
The like results for `CN(C)S(=O)(=O)Nc1cccc(C(=O)c2c[nH]c3ncc(-c4cnc(N5CCCC5)nc4)cc23)c1F` [Compound P-0107, 3-[3-(dimethylsulfamoylamino)-2-fluoro-benzoyl]-5-(2-pyrrolidin-1-ylpyrimidin-5-yl)-1H-pyrrolo[2,3-b]pyridine] were, in that order, under 0.1 µM and under 1 µM.
On the same counts, the results for `O=C(c1cccc(NS(=O)(=O)N2CCCC2)c1F)c1c[nH]c2ncc(-c3cnc(N4CCCC4)nc3)cc12` [Compound P-0109, N-[2-fluoro-3-[5-(2-pyrrolidin-1-ylpyrimidin-5-yl)-1H-pyrrolo[2,3-b]pyridine-3-carbonyl]phenyl]pyrrolidine-1-sulfonamide] are under 0.1 µM and under 1 µM.
Consider `CN(C)S(=O)(=O)Nc1cccc(C(=O)c2c[nH]c3ncc(I)cc23)c1F` [Compound P-0110, 3-[3-(dimethylsulfamoylamino)-2-fluoro-benzoyl]-5-iodo-1H-pyrrolo[2,3-b]pyridine], for which the IC50 on B-Raf V600E is under 0.1 µM; in test [1], under 1 µM.
Turning to `CCCN(C)S(=O)(=O)Nc1cccc(C(=O)c2c[nH]c3ncc(-c4cnc(C)nc4)cc23)c1F` [Compound P-0111, 3-[2-fluoro-3-[[methyl(propyl)sulfamoyl]amino]benzoyl]-5-(2-methylpyrimidin-5-yl)-1H-pyrrolo[2,3-b]pyridine], the IC50 on B-Raf V600E is under 0.1 µM; in test [1], under 1 µM.
The like results for `Cc1ncc(-c2cnc3[nH]cc(C(=O)c4cccc(NS(=O)(=O)N(C)CC5CC5)c4F)c3c2)cn1` [Compound P-0112, 3-[3-[[cyclopropylmethyl(methyl)sulfamoyl]amino]-2-fluoro-benzoyl]-5-(2-methylpyrimidin-5-yl)-1H-pyrrolo[2,3-b]pyridine] were, in that order, under 0.1 µM and under 1 µM.
The like results for `CN(C)S(=O)(=O)Nc1cccc(C(=O)c2c[nH]c3ncc(-c4ccc(C5CC5)nc4)cc23)c1F` [Compound P-0113, 5-(6-cyclopropyl-3-pyridyl)-3-[3-(dimethylsulfamoylamino)-2-fluoro-benzoyl]-1H-pyrrolo[2,3-b]pyridine] were, in that order, under 0.1 µM and under 1 µM.
On to `CCCN(C)S(=O)(=O)Nc1cccc(C(=O)c2c[nH]c3ncc(-c4ccc(C5CC5)nc4)cc23)c1F` [Compound P-0114, 5-(6-cyclopropyl-3-pyridyl)-3-[2-fluoro-3-[[methyl(propyl)sulfamoyl]amino]benzoyl]-1H-pyrrolo[2,3-b]pyridine], for which the IC50 on B-Raf V600E is under 0.1 µM; in test [1], under 1 µM.
For `CN(CC1CC1)S(=O)(=O)Nc1cccc(C(=O)c2c[nH]c3ncc(-c4ccc(C5CC5)nc4)cc23)c1F` [Compound P-0115, 3-[3-[[cyclopropylmethyl(methyl)sulfamoyl]amino]-2-fluoro-benzoyl]-5-(6-cyclopropyl-3-pyridyl)-1H-pyrrolo[2,3-b]pyridine], the figures for the IC50 (at B-Raf V600E; in test [1]) were under 0.1 µM and under 1 µM, respectively.
On the same counts, the results for `CCCN(C)S(=O)(=O)Nc1ccc(F)c(C(=O)c2c[nH]c3ncc(-c4cnc(OC)nc4)cc23)c1F` [Compound P-0116, 3-[2,6-difluoro-3-[[methyl(propyl)sulfamoyl]amino]benzoyl]-5-(2-methoxypyrimidin-5-yl)-1H-pyrrolo[2,3-b]pyridine] are under 0.1 µM and under 1 µM.
On the same counts, the results for `CCCNS(=O)(=O)Nc1cccc(C(=O)c2c[nH]c3ncc(I)cc23)c1F` [Compound P-0117, [2-fluoro-3-(propylsulfamoylamino)phenyl]-(5-iodo-1H-pyrrolo[2,3-b]pyridin-3-yl)methanone] are over 0.1 µM and over 1 µM.
On to `CCC(C)S(=O)(=O)Nc1cccc(C(=O)c2c[nH]c3ncc(-c4cnc(OC)nc4)cc23)c1F` (centres unmarked) [Compound P-0224, N-[2-fluoro-3-[5-(2-methoxypyrimidin-5-yl)-1H-pyrrolo[2,3-b]pyridine-3-carbonyl]phenyl]butane-2-sulfonamide], for which the values for the IC50 (against B-Raf V600E; in test [1]) were under 0.1 µM and under 1 µM, respectively.
On the same counts, the results for `CCC(C)S(=O)(=O)Nc1cccc(C(=O)c2c[nH]c3ncc(-c4cnc(N5CCCC5)nc4)cc23)c1F` (centres unmarked) [Compound P-0225, N-[2-fluoro-3-[5-(2-pyrrolidin-1-ylpyrimidin-5-yl)-1H-pyrrolo[2,3-b]pyridine-3-carbonyl]phenyl]butane-2-sulfonamide] are under 0.1 µM and under 1 µM.
On the same counts, the results for `CCC(C)S(=O)(=O)Nc1cccc(C(=O)c2c[nH]c3ncc(-c4cnc(NC5CC5)nc4)cc23)c1F` (centres unmarked) [Compound P-0226, N-[3-[5-[2-(cyclopropylamino)pyrimidin-5-yl]-1H-pyrrolo[2,3-b]pyridine-3-carbonyl]-2-fluoro-phenyl]butane-2-sulfonamide] are under 0.1 µM and under 1 µM.
For `CCC(C)S(=O)(=O)Nc1cccc(C(=O)c2c[nH]c3ncc(-c4ccc(C5(C#N)CC5)cc4)cc23)c1F` (centres unmarked) [Compound P-0227, N-[3-[5-[4-(1-cyanocyclopropyl)phenyl]-1H-pyrrolo[2,3-b]pyridine-3-carbonyl]-2-fluoro-phenyl]butane-2-sulfonamide], the IC50 on B-Raf V600E is under 0.1 µM; in test [1] it was under 1 µM.
Regarding `CCC(C)S(=O)(=O)Nc1cccc(C(=O)c2c[nH]c3ncc(-c4cnc(C(C)C)nc4)cc23)c1F` (centres unmarked) [Compound P-0229, N-[2-fluoro-3-[5-(2-isopropylpyrimidin-5-yl)-1H-pyrrolo[2,3-b]pyridine-3-carbonyl]phenyl]butane-2-sulfonamide], the IC50 was under 0.1 µM against B-Raf V600E and under 1 µM in test [1].
Regarding `CCC(C)S(=O)(=O)Nc1cccc(C(=O)c2c[nH]c3ncc(-c4ccc(N(C)C)nc4)cc23)c1F` (centres unmarked) [Compound P-0230, N-[3-[5-[6-(dimethylamino)-3-pyridyl]-1H-pyrrolo[2,3-b]pyridine-3-carbonyl]-2-fluoro-phenyl]butane-2-sulfonamide], the half-inhibitory concentration (IC50) against B-Raf V600E was under 0.1 µM; in test [1] it was under 1 µM.
The like results for `CCC(C)S(=O)(=O)Nc1cccc(C(=O)c2c[nH]c3ncc(-c4cnc(C)nc4)cc23)c1F` (centres unmarked) [Compound P-0231, N-[2-fluoro-3-[5-(2-methylpyrimidin-5-yl)-1H-pyrrolo[2,3-b]pyridine-3-carbonyl]phenyl]butane-2-sulfonamide] were, in that order, under 0.1 µM and under 1 µM.
On the same counts, the results for `O=C(c1cccc(NS(=O)(=O)N2CCCC2)c1F)c1c[nH]c2ncc(-c3cnc(N4CCOCC4)nc3)cc12` [Compound P-0235, N-[2-fluoro-3-[5-(2-morpholinopyrimidin-5-yl)-1H-pyrrolo[2,3-b]pyridine-3-carbonyl]phenyl]pyrrolidine-1-sulfonamide] are under 0.1 µM and under 1 µM.
On the same counts, the results for `CCC(C)S(=O)(=O)Nc1cccc(C(=O)c2c[nH]c3ncc(-c4cnc(N5CCOCC5)nc4)cc23)c1F` (centres unmarked) [Compound P-0236, N-[2-fluoro-3-[5-(2-morpholinopyrimidin-5-yl)-1H-pyrrolo[2,3-b]pyridine-3-carbonyl]phenyl]butane-2-sulfonamide] are under 0.1 µM and under 1 µM.
With `CN(C)S(=O)(=O)Nc1ccc(F)c(C(=O)c2c[nH]c3ncc(-c4cnc(C5CC5)nc4)cc23)c1F` [Compound P-0238, 5-(2-cyclopropylpyrimidin-5-yl)-3-[3-(dimethylsulfamoylamino)-2,6-difluoro-benzoyl]-1H-pyrrolo[2,3-b]pyridine], the IC50 at B-Raf V600E was under 0.1 µM; in test [1] it was under 1 µM.
On the same counts, the results for `CCN(C)S(=O)(=O)Nc1ccc(F)c(C(=O)c2c[nH]c3ncc(-c4cnc(C5CC5)nc4)cc23)c1F` [Compound P-0240, 5-(2-cyclopropylpyrimidin-5-yl)-3-[3-[[ethyl(methyl)sulfamoyl]amino]-2,6-difluoro-benzoyl]-1H-pyrrolo[2,3-b]pyridine] are under 0.1 µM and under 1 µM.
